Test results as given in ChEMBL document CHEMBL1158436, “In vitro inhibition of human erythrocyte glutathione reductase by some new organic nitrates” (Bioorg Med Chem Lett, 2009).
pIC50, pKi: −log10 of the molar value.

Molecular target: T1, Glutathione reductase, mitochondrial (Homo sapiens, UniProt P00390)
T1 sequence (P00390 whole entry): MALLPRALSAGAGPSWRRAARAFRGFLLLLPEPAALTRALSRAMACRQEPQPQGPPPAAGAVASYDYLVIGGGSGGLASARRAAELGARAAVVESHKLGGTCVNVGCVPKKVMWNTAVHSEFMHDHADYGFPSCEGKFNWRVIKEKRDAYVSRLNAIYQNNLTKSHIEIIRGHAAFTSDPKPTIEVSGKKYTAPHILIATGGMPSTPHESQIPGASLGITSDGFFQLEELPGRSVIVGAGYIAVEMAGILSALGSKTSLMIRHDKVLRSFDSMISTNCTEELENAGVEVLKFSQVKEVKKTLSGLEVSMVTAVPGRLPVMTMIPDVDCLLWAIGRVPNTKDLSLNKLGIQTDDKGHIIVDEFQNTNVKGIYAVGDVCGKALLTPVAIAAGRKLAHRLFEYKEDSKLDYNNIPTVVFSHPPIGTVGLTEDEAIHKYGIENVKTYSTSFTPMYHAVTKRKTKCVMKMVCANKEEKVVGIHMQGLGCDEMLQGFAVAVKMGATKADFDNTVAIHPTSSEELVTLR
Assay: Inhibition of human erythrocyte glutathione reductase

Compound | pIC50 | pKi
O=[N+]([O-])O[C@H]1CC2CCC1[C@@H]2O (stereo partly drawn) | 5.15 | 4.88
O=[N+]([O-])O[C@@H]1CC2CCC1[C@@H]2O (stereo partly drawn) | 5.17 | 4.93
O=[N+]([O-])O[C@@H]1CC[C@H](Br)[C@@H]2CC[C@H]1O2 | 4.96 | 4.67
O=[N+]([O-])O[C@H]1CCCCCC[C@@H]1O | 4.85 | 4.66
O=[N+]([O-])OC1CC2c3ccccc3C1C2O (stereo not drawn) | 4.99 | 4.73
O=[N+]([O-])O[C@H]1CCCC[C@@H]1O | 4.68 | 4.36
O=[N+]([O-])O[C@H]1CC=CC[C@@H]1O (racemic) | 4.64 | 4.45
O=[N+]([O-])O[C@H]1CC/C=C\CC[C@@H]1O (racemic) | 4.54 | 4.35
O=[N+]([O-])O[C@@H](CO)c1ccccc1 (single isomer, unassigned) | 4.80 | 4.59
